Drawing on patent publication US11168093B2, “Thienopyridine inhibitors of RIPK2” (Celgene Corporation, priority 2018, dated 2021), this text covers IC50 for 33 compounds.

The assay deals with RIPK2 enzyme (Homo sapiens (Human), UniProt O43353). Kind of assay: RIPK2 inhibition assay, TR-FRET LanthaScreen Tracer 199 screening assay. The assay is classed as binding. The note with it: 5 nM RIPK2 enzyme, Tracer 199 at 50 nM, Eu-anti-His Antibody at 2 nM, 1 hour incubation. How it is done:
All data was collected using a standard TR-FRET screening assay: LanthaScreen Tracer 199 at 50 nM, Eu-anti-His Antibody at 2 nM, 5 nM RIPK2 enzyme, and 1× Kinase Reaction Buffer. There was a 1 hour incubation prior to read. TR-FRET signal of the interaction (340Ex/665Em/615Em) was read at room temperature with standard setting. Background was subtracted of wells containing no enzyme. Percent inhibition was based on uninhibited controls log (inhibitor) vs. response. Variable slope equation was used with no constraints: Log Y=Bottom+(Top−Bottom)/(1+10^((Log IC50−X)*Hill Slope)).
The compound numbers correspond to the compound numbers above.
On the technique in general: Time-resolved FRET reads energy transfer from a long-lived donor to a nearby acceptor.

RIPK2 enzyme, sequence (O43353 whole entry): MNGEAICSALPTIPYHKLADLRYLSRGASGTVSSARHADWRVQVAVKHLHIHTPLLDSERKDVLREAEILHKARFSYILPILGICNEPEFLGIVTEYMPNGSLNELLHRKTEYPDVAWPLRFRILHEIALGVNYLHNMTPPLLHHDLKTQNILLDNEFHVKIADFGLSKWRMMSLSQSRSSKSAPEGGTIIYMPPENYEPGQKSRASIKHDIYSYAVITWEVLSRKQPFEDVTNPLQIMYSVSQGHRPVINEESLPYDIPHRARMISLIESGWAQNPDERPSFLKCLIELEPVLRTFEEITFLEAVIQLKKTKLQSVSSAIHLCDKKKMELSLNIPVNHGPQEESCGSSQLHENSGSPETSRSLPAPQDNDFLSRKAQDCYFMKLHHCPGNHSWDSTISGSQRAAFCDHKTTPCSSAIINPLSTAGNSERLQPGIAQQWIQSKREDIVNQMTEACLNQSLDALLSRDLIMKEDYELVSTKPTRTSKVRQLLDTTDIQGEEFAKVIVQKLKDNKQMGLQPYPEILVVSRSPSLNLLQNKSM

Compound `CC1NCCCCC1c1cc2c(Nc3c(F)cc4scnc4c3F)ccnc2s1` (single isomer, unassigned) [Example 118d, 4,6-difluoro-N-(2-(2-methylazepan-3-yl)thieno[2,3-b]pyridin-4-yl)benzo[d]thiazol-5-amine] yielded an IC50 of 10 to 20 nM.

Compound `CC1NCCCC1c1cc2c(Nc3ccc4scnc4c3)c(F)cnc2s1` (single isomer, unassigned) [Example 119b, N-(5-fluoro-2-(2-methylpiperidin-3-yl)thieno[2,3-b]pyridin-4-yl)benzo[d]thiazol-5-amine] displayed an IC50 of at most 10 nM.

As to `CC1NCCCC1c1cc2c(Nc3ccc4scnc4c3)c(F)cnc2s1` (single isomer, unassigned) [Example 119c, N-(5-fluoro-2-(2-methylpiperidin-3-yl)thieno[2,3-b]pyridin-4-yl)benzo[d]thiazol-5-amine], the IC50 was at most 10 nM.

Compound `CC1NCCCC1c1cc2c(Nc3ccc4scnc4c3)c(F)cnc2s1` (single isomer, unassigned) [Example 119d, N-(5-fluoro-2-(2-methylpiperidin-3-yl)thieno[2,3-b]pyridin-4-yl)benzo[d]thiazol-5-amine] registered an IC50 of at least 50 nM.

As for `CC1C(c2cc3c(Nc4ccc5scnc5c4)c(F)cnc3s2)CCCN1C` (single isomer, unassigned) [Example 120a, N-(2-(1,2-dimethylpiperidin-3-yl)-5-fluorothieno[2,3-b]pyridin-4-yl)benzo[d]-thiazol-5-amine], the IC50 is 20 to 50 nM.

The compound `CC1C(c2cc3c(Nc4ccc5scnc5c4)c(F)cnc3s2)CCCN1C` (single isomer, unassigned) [Example 120b, N-(2-(1,2-dimethylpiperidin-3-yl)-5-fluorothieno[2,3-b]pyridin-4-yl)benzo[d]-thiazol-5-amine] returned an IC50 of at most 10 nM.

With `CC1C(c2cc3c(Nc4ccc5scnc5c4)c(F)cnc3s2)CCCN1C` (single isomer, unassigned) [Example 120c, N-(2-(1,2-dimethylpiperidin-3-yl)-5-fluorothieno[2,3-b]pyridin-4-yl)benzo[d]-thiazol-5-amine], the IC50 was at most 10 nM.

Compound `CC1C(c2cc3c(Nc4ccc5scnc5c4)c(F)cnc3s2)CCCN1C` (single isomer, unassigned) [Example 120d, N-(2-(1,2-dimethylpiperidin-3-yl)-5-fluorothieno[2,3-b]pyridin-4-yl)benzo[d]-thiazol-5-amine] showed an IC50 of at least 50 nM.

With `CC1NCCCC1c1cc2c(Nc3cc4ncsc4cc3F)c(F)cnc2s1` (single isomer, unassigned) [Example 122b, 6-fluoro-N-(5-fluoro-2-(2-methylpiperidin-3-yl)thieno[2,3-b]pyridin-4-yl) benzo[d]thiazol-5-amine], the IC50 fell in the range of 20 to 50 nM.

In turn, `CC1NCCCC1c1cc2c(Nc3cc4ncsc4cc3F)c(F)cnc2s1` (single isomer, unassigned) [Example 122c, 6-fluoro-N-(5-fluoro-2-(2-methylpiperidin-3-yl)thieno[2,3-b]pyridin-4-yl) benzo[d]thiazol-5-amine] showed an IC50 of 10 to 20 nM.

`CC1C(c2cc3c(Nc4cc5ncsc5cc4F)c(F)cnc3s2)CCCN1C` (single isomer, unassigned) [Example 123d, N-(2-(1,2-dimethylpiperidin-3-yl)-5-fluorothieno[2,3-b]pyridin-4-yl)-6-fluorobenzo[d]thiazol-5-amine] yielded an IC50 of 20 to 50 nM.

In the case of `CC1NCCCC1c1cc2c(Nc3ccc4scnc4c3F)c(F)cnc2s1` (single isomer, unassigned) [Example 124a, 4-fluoro-N-(5-fluoro-2-(2-methylpiperidin-3-yl)thieno[2,3-b]pyridin-4-yl)benzo[d]thiazol-5-amine], the IC50 is at least 50 nM.

The compound `CC1NCCCC1c1cc2c(Nc3ccc4scnc4c3F)c(F)cnc2s1` (single isomer, unassigned) [Example 124b, 4-fluoro-N-(5-fluoro-2-(2-methylpiperidin-3-yl)thieno[2,3-b]pyridin-4-yl)benzo[d]thiazol-5-amine] registered an IC50 of at most 10 nM.

For `CC1NCCCC1c1cc2c(Nc3ccc4scnc4c3F)c(F)cnc2s1` (single isomer, unassigned) [Example 124c, 4-fluoro-N-(5-fluoro-2-(2-methylpiperidin-3-yl)thieno[2,3-b]pyridin-4-yl)benzo[d]thiazol-5-amine], the IC50 was at most 10 nM.

`CC1NCCCC1c1cc2c(Nc3ccc4scnc4c3F)c(F)cnc2s1` (single isomer, unassigned) [Example 124d, 4-fluoro-N-(5-fluoro-2-(2-methylpiperidin-3-yl)thieno[2,3-b]pyridin-4-yl)benzo[d]thiazol-5-amine]: the IC50 is at least 50 nM.

`CC1C(c2cc3c(Nc4ccc5scnc5c4F)c(F)cnc3s2)CCCN1C` (single isomer, unassigned) [Example 125a, N-(2-(1,2-dimethylpiperidin-3-yl)-5-fluorothieno[2,3-b]pyridin-4-yl)-4-fluorobenzo[d]thiazol-5-amine] came in with an IC50 of at least 50 nM.

The compound `CC1C(c2cc3c(Nc4ccc5scnc5c4F)c(F)cnc3s2)CCCN1C` (single isomer, unassigned) [Example 125b, N-(2-(1,2-dimethylpiperidin-3-yl)-5-fluorothieno[2,3-b]pyridin-4-yl)-4-fluorobenzo[d]thiazol-5-amine] yielded an IC50 of 10 to 20 nM.

`CC1C(c2cc3c(Nc4ccc5scnc5c4F)c(F)cnc3s2)CCCN1C` (single isomer, unassigned) [Example 125c, N-(2-(1,2-dimethylpiperidin-3-yl)-5-fluorothieno[2,3-b]pyridin-4-yl)-4-fluorobenzo[d]thiazol-5-amine] displayed an IC50 of at most 10 nM.

Regarding `CC1C(c2cc3c(Nc4ccc5scnc5c4F)c(F)cnc3s2)CCCN1C` (single isomer, unassigned) [Example 125d, N-(2-(1,2-dimethylpiperidin-3-yl)-5-fluorothieno[2,3-b]pyridin-4-yl)-4-fluorobenzo[d]thiazol-5-amine], the IC50 is at least 50 nM.

In turn, `CC1NCCCC1c1cc2c(Nc3c(F)cc4scnc4c3F)c(F)cnc2s1` (single isomer, unassigned) [Example 126d, 4,6-difluoro-N-(5-fluoro-2-(2-methylpiperidin-3-yl)thieno[2,3-b]pyridin-4-yl)benzo[d]thiazol-5-amine] showed an IC50 of 10 to 20 nM.

In turn, `CC1C(c2cc3c(Nc4c(F)cc5scnc5c4F)c(F)cnc3s2)CCCN1C` (single isomer, unassigned) [Example 127a] registered an IC50 of 20 to 50 nM.

As to `CC1C(c2cc3c(Nc4c(F)cc5scnc5c4F)c(F)cnc3s2)CCCN1C` (single isomer, unassigned) [Example 127d], the IC50 lay within 10 to 20 nM.

Compound `CC1NCCC=C1c1cc2c(Nc3ccc4scnc4c3)ccnc2s1` (stereo not drawn) [Example 1, N-(2-(2-methyl-1,2,5,6-tetrahydropyridin-3-yl)thieno[2,3-b]pyridin-4-yl)benzo[d]thiazol-5-amine] displayed an IC50 of at most 10 nM.

`CC1C(c2cc3c(Nc4ccc5scnc5c4)ccnc3s2)=CCCN1C` (stereo not drawn) [Example 2, N-(2-(1,2-dimethyl-1,2,5,6-tetrahydropyridin-3-yl)thieno[2,3-b]pyridin-4-yl)benzo[d]thiazol-5-amine]: the IC50 was at most 10 nM.

Turning to `CC1NCCCC1c1cc2c(Nc3ccc4scnc4c3)ccnc2s1` (stereo not drawn) [Example 3, N-(2-(2-methylpiperidin-3-yl)thieno[2,3-b]pyridin-4-yl)benzo[d]thiazol-5-amine], the half-maximal inhibitory concentration (IC50) is at most 10 nM.

`CC1C(c2cc3c(Nc4ccc5scnc5c4)ccnc3s2)CCCN1C` (stereo not drawn) [Example 4, N-(2-(1,2-dimethylpiperidin-3-yl)thieno[2,3-b]pyridin-4-yl)benzo[d]thiazol-5-amine] had an IC50 of at most 10 nM.

The compound `C[C@@H]1[C@H](c2cc3c(Nc4ccc5scnc5c4)ccnc3s2)CCCN1C` [Example 4c, N-(2-(1,2-dimethylpiperidin-3-yl)thieno[2,3-b]pyridin-4-yl)benzo[d]thiazol-5-amine] registered a half-inhibitory concentration (IC50) of at most 10 nM.

`C[C@H]1[C@@H](c2cc3c(Nc4ccc5scnc5c4)ccnc3s2)CCCN1C` [Example 4d, N-(2-(1,2-dimethylpiperidin-3-yl)thieno[2,3-b]pyridin-4-yl)benzo[d]thiazol-5-amine]: the IC50 was at most 10 nM.

In turn, `CCN1CCC=C(c2cc3c(Nc4ccc5scnc5c4)ccnc3s2)C1C` (stereo not drawn) [Example 5, N-(2-(1-ethyl-2-methyl-1,2,5,6-tetrahydropyridin-3-yl)thieno[2,3-b]pyridin-4-yl)benzo[d]thiazol-5-amine] gave an IC50 of at most 10 nM.

As for `CCN1CCCC(c2cc3c(Nc4ccc5scnc5c4)ccnc3s2)C1C` (stereo not drawn) [Example 6, N-(2-(1-ethyl-2-methylpiperidin-3-yl)thieno[2,3-b]pyridin-4-yl)benzo[d]thiazol-5-amine], the IC50 is at most 10 nM.

Consider `CC(C)N1CCC=C(c2cc3c(Nc4ccc5scnc5c4)ccnc3s2)C1C` (stereo not drawn) [Example 7, N-(2-(1-isopropyl-2-methyl-1,2,5,6-tetrahydropyridin-3-yl)thieno[2,3-b]pyridin-4-yl)benzo[d]thiazol-5-amine], for which the IC50 is at most 10 nM.

`CC(C)N1CCCC(c2cc3c(Nc4ccc5scnc5c4)ccnc3s2)C1C` (stereo not drawn) [Example 8, N-(2-(1-isopropyl-2-methylpiperidin-3-yl)thieno[2,3-b]pyridin-4-yl)benzo[d]thiazol-5-amine] had an IC50 of at most 10 nM.

Consider `CC(=O)N1CCC=C(c2cc3c(Nc4ccc5scnc5c4)ccnc3s2)C1C` (stereo not drawn) [Example 9, 1-(5-(4-(benzo[d]thiazol-5-ylamino)thieno[2,3-b]pyridin-2-yl)-6-methyl-3,6-dihydropyridin-1(2H)-yl)ethan-1-one], for which the IC50 fell in the range of 10 to 20 nM.

The IC50 is the point on the concentration scale where inhibition reaches its midpoint. High values mean weaker potency in that assay, low ones greater potency in that assay.
